Test system: CD1 female mouse brain lipidome
Assay: Brain-region lipid levels (HPLC/MS/MS lipidomics) 2 h after single i.p. 3 mg/kg CP 55,940 vs vehicle
Format: in vivo
Design: N-arachidonoyl phenylalanine level, Mean / N-stearoyl tryptophan level, Mean / N-stearoyl proline level, Mean / N-stearoyl leucine level, Mean / N-stearoyl phenylalanine level, Mean / N-stearoyl serine level, Mean / N-stearoyl methionine level, Mean: unit: moles per gram
Conditions: cerebellum
Procedure: The Bloomington Institutional Animal Care and Use Committee of Indiana University reviewed and approved the animal procedures. Female mice from the CD1 strain were utilized to match our study examining THC’s effects on the brain lipidome ([Leishman et al., 2018]). Mice were given a single i.p. injection of either 3 mg/kg CP or 1:1:18 cremophor:ethanol:saline vehicle (please refer to the section “3 mg/kg CP Is Relevant for Synthetic Cannabinoid Abuse and Has Stronger Effects on the Female Mouse Brain Lipidome During Adolescence” for a justification of dose and use of female mice). Three different age groups were given injections: PND 35 and PND 50 adolescents, and adult mice (PND 113). At least eight mice in each age group received CP and at least eight received vehicle. Matching the THC study time course ([Leishman et al., 2018]), mice were sacrificed via rapid decapitation 2 h after injection. Brains were immediately removed and flash-frozen in liquid nitrogen, and then stored at -80°C until dissections were performed. Brains were dissected on an ice-cold dissection plate into the following regions: STR, HIPP, CER, THAL, CTX, HYP, MID, and STEM. These abbreviations for these brain areas will be used exclusively when discussing the results generated by these specific dissections. Each dissected area was immediately placed in liquid nitrogen and then stored at -80°C until used for lipid extraction.
Tissue extracts were performed as previously described ([Bradshaw et al., 2006]; [Stuart et al., 2013]; [Raboune et al., 2014]; [Leishman et al., 2016a],[b], [2017], [2018]). First, samples were shock frozen in liquid nitrogen, weighed, and transferred to a centrifuge tube. The mass of the largest sample was multiplied by 50 to determine how many milliliters of HPLC-grade methanol (Fisher, Fair Lawn, NJ, United States) to add. Then, samples were spiked with 500 pmol deuterium-labeled NAGly (d8NAGly; Cayman Chemical, Ann Arbor, MI, United States). Samples were placed on ice in darkness for 2 h then individually homogenized and centrifuged at 19,000 × g for 20 min at 20°C. Supernatants were diluted with HPLC water (purified in house) to make a solution of 75% water, 25% supernatant. Lipids were partially purified on C18 solid phase extraction columns (Agilent, Palo Alto, CA, United States). A series of four elutions with 1.5 mL of 60%, 75%, 85%, and 100% methanol were collected ([Stuart et al., 2013]; [Leishman et al., 2016a],[b], [2018]).
As previously described ([Bradshaw et al., 2006]; [Tan et al., 2006]; [Smoum et al., 2010]; [Stuart et al., 2013]; [Tortoriello et al., 2013]; [Raboune et al., 2014]; [Leishman et al., 2016a],[b], [2017], [2018]), samples were analyzed using an Applied Biosystems API 3000 triple quadrupole mass spectrometer with electrospray ionization (Foster City, CA, United States). Using an Agilent XDB-C18 reversed phase analytical column and optimized mobile phase gradients, 20 μL from each elution were chromatographed. Two Shimadzu 10ADvp pumps (Columbia, MD, United States) provided the pressure for gradient elution. Mobile phase A: 20% methanol, 80% water (v/v) and 1 mM ammonium acetate (Sigma, St. Louis, MO, United States). Mobile phase B: 100% methanol, 1 mM ammonium acetate. Every method run began with 0% mobile phase B, reached 100% mobile phase B flowing at 0.2 mL/min, and gradually returned to 0% mobile phase B.
This screening library will be referred to as the lipidome when discussing data from this study. HPLC/MS/MS data were analyzed using Analyst software (Applied Biosystems) ([Bradshaw et al., 2006]; [Tan et al., 2006]; [Stuart et al., 2013]; [Tortoriello et al., 2013]; [Raboune et al., 2014]; [Leishman et al., 2016a],[b], [2017], [2018]). Chromatograms (Supplementary Figure 3) were generated by determining the retention time of analytes from the analytical column with a [M-1] or [M+1] parent peak and a fragmentation peak corresponding to the programmed values. […]

[1] = PND 50 female mice, 3 mg/kg CP 55,940
[2] = WT adult female mice, 3mg/kg CP 55,940

## CCCCCCC(C)(C)c1ccc([C@@H]2C[C@H](O)CC[C@H]2CCCO)c(O)c1 [CP 55,940]
[1]
  N-arachidonoyl phenylalanine level, Mean: 2.55E-13
  N-arachidonoyl proline level, Mean: BDL
  N-arachidonoyl serine level, Mean: 4.25E-12
  N-arachidonoyl taurine level, Mean: 1.97E-11
  N-arachidonoyl tryptophan level, Mean: BDL
  N-arachidonoyl tyrosine level, Mean: 2.66E-13
  N-docosahexaenoyl GABA level, Mean: 9.21E-13
  N-docosahexaenoyl ethanolamine level, Mean: 3.09E-11
  N-docosahexaenoyl glycine level, Mean: 4.01E-13
  N-docosahexaenoyl leucine level, Mean: 2.06E-13
  N-docosahexaenoyl phenylalanine level, Mean: 2.68E-13
  N-docosahexaenoyl proline level, Mean: BDL
  N-docosahexaenoyl serine level, Mean: 8.95E-12
  N-docosahexaenoyl tryptophan level, Mean: BDL
  N-docosahexaenoyl tyrosine level, Mean: 6.76E-13
  N-linoleoyl GABA level, Mean: 6.58E-13
  N-linoleoyl alanine level, Mean: 7.79E-14
  N-linoleoyl ethanolamine level, Mean: 3.74E-11
  N-linoleoyl glycine level, Mean: 1.39E-13
  N-linoleoyl leucine level, Mean: 5.12E-14
  N-linoleoyl proline level, Mean: BDL
  N-linoleoyl serine level, Mean: 5.53E-11
  N-linoleoyl tryptophan level, Mean: BDL
  N-linoleoyl tyrosine level, Mean: BDL
  N-nervonoyl valine level, Mean: BDL
  N-oleoyl GABA level, Mean: 2.42E-12
  N-oleoyl alanine level, Mean: 9.8E-13
  N-oleoyl dopamine level, Mean: BDL
  N-oleoyl ethanolamine level, Mean: 6.07E-11
  N-oleoyl glycine level, Mean: 1.13E-12
  N-oleoyl leucine level, Mean: 5.63E-13
  N-oleoyl methionine level, Mean: 2.55E-13
  N-oleoyl phenylalanine level, Mean: 1.01E-12
  N-oleoyl proline level, Mean: BDL
  N-oleoyl serine level, Mean: 1.05E-10
  N-oleoyl tryptophan level, Mean: BDL
  N-oleoyl tyrosine level, Mean: 3.12E-13
  N-oleoyl valine level, Mean: 4.78E-14
  N-palmitoyl GABA level, Mean: 5.13E-12
  N-palmitoyl alanine level, Mean: 2.64E-12
  N-palmitoyl ethanolamine level, Mean: 5.07E-11
  N-palmitoyl glycine level, Mean: 3.72E-12
  N-palmitoyl leucine level, Mean: 1.13E-12
  N-palmitoyl methionine level, Mean: 9.79E-13
  N-palmitoyl phenylalanine level, Mean: 1.27E-12
  N-palmitoyl proline level, Mean: BDL
  N-palmitoyl serine level, Mean: 1.43E-11
  N-palmitoyl tryptophan level, Mean: BDL
  N-palmitoyl tyrosine level, Mean: 6.09E-13
  N-palmitoyl valine level, Mean: 1.77E-13
  N-stearoyl GABA level, Mean: 5.74E-12
  N-stearoyl alanine level, Mean: 1.16E-12
  N-stearoyl ethanolamine level, Mean: 2.6E-11
  N-stearoyl glycine level, Mean: 5.05E-13
  N-stearoyl leucine level, Mean: 8.15E-13
  N-stearoyl methionine level, Mean: 4.91E-13
  N-stearoyl phenylalanine level, Mean: 1.17E-12
  N-stearoyl proline level, Mean: BDL
  N-stearoyl serine level, Mean: 3.32E-11
  N-stearoyl tryptophan level, Mean: BDL
  N-stearoyl tyrosine level, Mean: 1.08E-13
  Oleic acid level, Mean: 2.36E-10
  PGE2 level, Mean: 5.14E-11
  THC level, Mean: BDL
[2]
  2-arachidonoyl glycerol level, Mean: 4.32E-09
  2-linoleoyl glycerol level, Mean: 2.44E-10
  2-oleoyl glycerol level, Mean: 1.94E-09
  2-palmitoyl glycerol level, Mean: 1.01E-10
  6-ketoPGF1α level, Mean: 2.25E-11
  Arachidonic acid level, Mean: 7.51E-10
  Linoleic acid level, Mean: 6.75E-10
  N-arachidonoyl GABA level, Mean: 1.22E-11
  N-arachidonoyl ethanolamine level, Mean: 1.33E-11
  N-arachidonoyl glycine level, Mean: 1.43E-13
  N-arachidonoyl phenylalanine level, Mean: 4.52E-14
  N-arachidonoyl taurine level, Mean: 6.54E-11
  N-docosahexaenoyl GABA level, Mean: 8.3E-12
  N-docosahexaenoyl ethanolamine level, Mean: 2.78E-11
  N-docosahexaenoyl glycine level, Mean: 7.91E-14
  N-docosahexaenoyl leucine level, Mean: 1.51E-12
  N-docosahexaenoyl phenylalanine level, Mean: 3.04E-14
  N-linoleoyl GABA level, Mean: 7.7E-12
  N-linoleoyl alanine level, Mean: 2.18E-13
  N-linoleoyl ethanolamine level, Mean: 1.87E-11
  N-linoleoyl glycine level, Mean: 6.99E-14
  N-linoleoyl serine level, Mean: 1.99E-11
  N-oleoyl GABA level, Mean: 1.65E-11
  N-oleoyl alanine level, Mean: 2.34E-12
  N-oleoyl ethanolamine level, Mean: 2.04E-10
  N-oleoyl glycine level, Mean: 2.49E-13
  N-oleoyl leucine level, Mean: 1.06E-12
  N-oleoyl phenylalanine level, Mean: 6.03E-13
  N-oleoyl serine level, Mean: 1.05E-10
  N-oleoyl tyrosine level, Mean: 8.96E-13
  N-oleoyl valine level, Mean: 2.42E-14
  N-palmitoyl GABA level, Mean: 2.25E-11
  N-palmitoyl alanine level, Mean: 1.61E-12
  N-palmitoyl ethanolamine level, Mean: 6.47E-11
  N-palmitoyl glycine level, Mean: 1.24E-12
  N-palmitoyl leucine level, Mean: 1.34E-12
  N-palmitoyl methionine level, Mean: 6.89E-12
  N-palmitoyl phenylalanine level, Mean: 1.87E-13
